In the assay the test system is Phytophthora capsici. In words: Efficacy of WSP and WDG in controlling Phytophthora capsici leaf blight on tomato plants (Example VI). The assay is classed as in vivo. To be noted: 1.24 g/L; tomato cv Roma; rated 7 days post inoculation. As to the method: Reynoutria sachalinensis extract was formulated as WSP and as WDG. Both formulations were evaluated for their efficacy in controlling Phytophthora leaf blight on tomato. The cv “Roma” was planted in greenhouse till two true leaf stage. The isolate of P. capsici was grown on lima bean media (150 g lima bean was autoclaved in 500 ml water at 121° C. for 0.5 h and filtered through two layers of cheese cloth to remove seed coats. 20 g of agar was added to the filtrate and increase the volume to 1000 ml. The media was autoclaved at 121° C. for 15 min) for 7 days and the sporangia were washed off with sterile water. The sporangia suspension was incubated at room temperature (about 25° C.) for 1-2 h to release zoospores. The suspension was adjusted to 1.0×10^5 spores/ml. There were three single plant replications per treatments. For each treatment, 3 ml treatment/plant was applied with hand held sprayer. After the treatments dried up in a container for incubation, 10 ml of spore suspension was applied uniformly onto all the plants. The container was sealed to maintain high moisture and the plants were incubated at 25° C. in darkness for 3 days. Disease was rated 7 days post inoculation.

On to `COCC(=O)N(c1c(C)cccc1C)[C@H](C)C(=O)OC` [mefenoxam (Ridomil), mefenoxam], for which the “% Control” value amounted to 95.9% and the “Severity (%, mean)” value was found to be 2.3%.

Source of the values: patent US20120196751A1, “ANTHRAQUINONE CONTAINING PREPARATIONS/LIGNIN FORMULATIONS” (MARRONE BIO INNOVATIONS, INC., priority 2011, published 2012).
